The values below come from paper PMC2781006 (Virology Journal, 2009).

As usually defined, the IC50 is the midpoint of a concentration-inhibition curve.

Read-outs that look alike come from different tables or passages of the source.

Series [1] has as its system Nipah virus. The experiment in a line: microbe, parasite or virus in culture. The format is cell-based. Conditions: read-out: NiV IC50.
In a further series the test system is Hendra virus. The experiment in a line: microbe, parasite or virus in culture. The format is cell-based. Conditions: read-out: HeV IC50.
In the next series the test system is pseudotyped Nipah (pNiV). The experiment in a line: microbe, parasite or virus in culture. The format is cell-based, Nipah virus. Conditions: read-out: pNiV IC50.
In series [2] the test system is pseudotyped Hendra (pHeV). The experiment in a line: microbe, parasite or virus in culture. The format is cell-based, Hendra virus. Conditions: read-out: pHeV IC50.
A further series deals with VSV (pVSV). Kind of series: microbe, parasite or virus in culture. The format is cell-based, vesicular stomatitis virus. To be noted: read-out: pVSV IC50.
The subject of series [3] is human parainfluenza virus type 3 (HPIV3). The experiment in a line: microbe, parasite or virus in culture. The format is cell-based. To be noted: read-out: HPIV3 IC50.
Series [4] concerns Influenza A/swine/Rachaburi/2000 (H1N1). Kind of series: microbe, parasite or virus in culture. The format is cell-based, Influenza A virus.
The subject of series [5] is Nipah virus. The experiment in a line: microbe, parasite or virus in culture. The format is cell-based. To be noted: Henipavirus nipahense.
For another series, the system named is IL-8. The format is cell-based, African Green Monkey.
The test system of another series is influenza A (H1N1) virus. To be noted: cited from earlier work.
A short description of series [6]: in vitro. Conditions: African green monkey.
Series [7] in a line: in vitro. Conditions: human.
The next series has as its system TNF-α. The format is cell-based, African Green Monkey.
The next series deals with Henipavirus. To be noted: cited from earlier work.
The subject of series [8] is Nipah virus. Conditions: hamster, in vivo; cited from earlier work.
The mark [9] stands for this setting: Henipavirus nipahense, HEK-293T, 48 h.
Where [10] appears, read: Vesicular stomatitis virus, HEK-293T, 48 h.
Setting [11] is: Human respirovirus 3, HEK-293T, 24 h.
Setting [12] is: 1 h, read-out: NiV IC50, co-infection (Co).
Setting [13] is: 1 h, read-out: NiV IC50, post-infection (Post).
Setting [14] is: 1 h, read-out: NiV IC50, pre-infection (Pre).
Where [15] appears, read: read-out: NiV IC50, cell pre-incubation (Cells).

As for `CN(C)c1ccc(C(=C2C=CC(=[N+](C)C)C=C2)c2ccc(N(C)C)cc2)cc1` [Gentian Violet, gentian violet], the IC50 in the series on Nipah virus [1] (Henipavirus nipahense, Vero) is 525 nM; in the series with Hendra virus (Henipavirus hendraense, Vero) it was 2680 nM; with pseudotyped Nipah (pNiV) (setting [9]), 61 nM; in [2] (Hendra virus, HEK-293T, 48 h), 0.3 nM; with VSV (pVSV) (setting [10]) it was 268 nM; in series [3] (setting [11]), 860 nM. Further, the IC50 in the series on Nipah virus [5] (setting [12]) is 4980 nM; with Nipah virus [5] (setting [13]), 3950 nM; with Nipah virus [5] (setting [14]) it was 7380 nM; with Nipah virus [5] (setting [15]) it was 587 nM. Moreover, the “Influenza IC50” value in series [4] was “DNC^a”. In addition, in [4], the “inhibition of influenza (H1N1) virus, in words” value (shortened to “inhibition of influenza”) is on record as “did not observe clear inhibition”. Besides, in the series on IL-8, the “IL-8 expression, fold change” value is recorded as “two fold”. Moreover, the “residual viable count of influenza virus, 30 min” value in the series on influenza A (H1N1) virus was “below three logs”. Also, the “residual viable count of influenza virus, 60 min” value in the series with influenza A (H1N1) virus is recorded as “below five logs”. Besides, the CC50 in the series “in vitro [6]” was found to be 5860 nM; in “in vitro [7]”, 2830 nM.

In the case of `CN1C(=O)[C@]23CC4=CC=C[C@H](O)[C@H]4N2C(=O)[C@@]1(CO)SS3` [Gliotoxin, gliotoxin], the IC50 in the series on Nipah virus [1] (Henipavirus nipahense, Vero) was determined as 149 nM; with Hendra virus (Henipavirus hendraense, Vero), 579 nM; in the series with pseudotyped Nipah (pNiV) (setting [9]) it was 100 nM; in [2] (Hendra virus, HEK-293T, 48 h) it was 366 nM; in the series with VSV (pVSV) (setting [10]) it was 232 nM; in series [3] (setting [11]), 527 nM. Besides, the half-inhibitory concentration (IC50) stood at 13800 nM in series [4] (Influenza A virus, H1N1, Vero, in Sus scrofa, 24 h, read-out: Influenza IC50); 468 nM in the series on Nipah virus [5] (setting [12]); 610 nM in the series with Nipah virus [5] (setting [13]); 1170 nM in the series on Nipah virus [5] (setting [14]); 487 nM with Nipah virus [5] (setting [15]). Moreover, the “inhibition of influenza” value in series [4] is on record as “dose-dependant inhibition”. The “IL-8 expression, fold change” value with IL-8 is reported as “two fold”. In addition, the “TNF-α expression, fold change” value with TNF-α was “suppressed”. The CC50 in “in vitro [6]” amounted to 4900 nM; in “in vitro [7]”, 1610 nM.

In the case of `NC(=O)c1ncn([C@@H]2O[C@H](CO)[C@@H](O)[C@H]2O)n1` [Ribavirin, ribavirin], the IC50 stood at 3900 nM with Nipah virus [1] (Henipavirus nipahense, Vero) and 2240 nM in the series on Hendra virus (Henipavirus hendraense, Vero). This compound registered a CC50 in “in vitro [6]” of 150000 nM.

Turning to `CCN(CC)CCCC(C)Nc1ccnc2cc(Cl)ccc12` (centres unmarked) [chloroquine], the “anti Henipavirus effects in vivo” value in the series with Henipavirus is “no anti Henipavirus effects”.

For brilliant green, the IC50 in the series on Nipah virus [1] came out at 218 nM; in the series on Hendra virus, 778 nM; in the series on pseudotyped Nipah (pNiV) it was 42 nM; in series [2] it was 34 nM; with VSV (pVSV), 15 nM; in [3], 248 nM. In [4], the “Influenza IC50” value is “DNC^a”. In addition, the “inhibition of influenza” value in series [4] was “did not observe antiviral efficacy”. The “IL-8 expression, fold change” value in the series on IL-8 is recorded as 20 fold. In the series with TNF-α, the “TNF-α expression, fold change” value came to 15 fold. The CC50 was 4670 nM in the series with Vero cells and 861 nM in the series with 293T cells.

Take poly(I)-poly(C12U): the prevention of mortality result in the series on Nipah virus [8] was “five of six animals”.
